Patent US12606795B2 (Thankcome Biological Science and Technology (SuZhou) Co., …, priority 2023, dated 2026)

What was measured:
[1] = test system: Escherichia coli WP2 uvrA; details: Escherichia coli WP2A uvr −S9
Experimental: (§1) Bacterial strains used were Salmonella typhimurium TA97a (National Center for Type Culture Collection NTCC, 506391), S. typhimurium TA98 (NTCC, 506392), S. typhimurium TA100 (NTCC, 506395), S. typhimurium TA1535 (NTCC, 506396), and Escherichia coli WP2 uvrA (CHI Scientific, Co., Ltd., product number: 6-1705). To prepare a drug delivery formulation, distilled water was used as a carrier to prepare a suspension (100 mg/mL) for a test item. […] Therefore, bacteria in samples for the test item were removed by a mechanical means. In the process of mixing the formulation, any soluble components for the test item was dissolved in the carrier, and then, residual bacteria were removed by centrifugation (4° C.; 8000 rpm; 10 min). After centrifugation, liquid supernatant was removed and sterile filtration was performed with a 0.22 μm filter.
(§2) In the confirmatory mutation research, detection was performed at 15.81, 50, 158.1, 500, 1581, and 5000 μg/plate. The maximum concentration was recommended by current regulations and guidelines. […] The survival rate of test bacterial cells was checked through plate experiments in each test. If there is a dosage-related increase in the number of revertants, it is considered that the test item has mutagenicity, and/or a reproducible biology-related positive reaction targeting at least one dosage group occurs in at least one strain with or without metabolic activation.

[2] = test system: S. typhimurium TA100; details: TA100 −S9
Experimental: as §1, §2

## COS(C)(=O)=O [Positive control 2, methyl methylsulfonate]
[1]
  Number of revertant mutants per plate (mean ± standard deviation): 613.40
[2]
  Number of revertant mutants per plate (mean ± standard deviation): 1347.00
